Data reported in ChEMBL document CHEMBL4406807, “Discovery of 3,4,6-Trisubstituted Piperidine Derivatives as Orally Active, Low hERG Blocking Akt Inhibitors via Conformational Restriction and Structure-Based Design” (J Med Chem, 2019).
pIC50: −log10 of the molar value.

What was measured:
[1] = target: RAC-alpha serine/threonine-protein kinase (Homo sapiens, UniProt P31749)
Description: Inhibition of human Akt1 expressed in Escherichia coli using STK Substrate 2-biotin as substrate incubated for 1 hr by HTRF assay

HCT-116 = assay: cells; conditions: Homo sapiens, HCT-116, 72 h
OVCAR-8 = assay: Antiproliferative activity against human OVCAR8 cells; format: functional, cell-based
LNCaP = assay: Antiproliferative activity against human LNCAP cells; format: functional, cell-based

RAC-alpha serine/threonine-protein kinase, sequence (P31749 whole entry): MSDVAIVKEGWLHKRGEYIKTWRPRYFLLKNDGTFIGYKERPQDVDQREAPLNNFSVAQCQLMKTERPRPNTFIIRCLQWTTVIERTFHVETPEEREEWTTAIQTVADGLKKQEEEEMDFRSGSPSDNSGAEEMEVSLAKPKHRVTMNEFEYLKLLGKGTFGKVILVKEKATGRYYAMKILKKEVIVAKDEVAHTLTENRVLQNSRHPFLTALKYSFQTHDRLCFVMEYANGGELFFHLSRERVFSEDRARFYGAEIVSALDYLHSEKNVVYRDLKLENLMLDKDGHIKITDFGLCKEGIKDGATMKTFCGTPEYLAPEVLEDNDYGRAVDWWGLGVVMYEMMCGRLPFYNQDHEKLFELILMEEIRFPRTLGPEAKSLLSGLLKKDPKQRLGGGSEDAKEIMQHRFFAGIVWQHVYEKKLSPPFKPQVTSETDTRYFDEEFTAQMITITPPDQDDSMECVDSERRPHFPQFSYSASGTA

SMILES	pIC50 [1]	pIC50 (HCT-116)	pIC50 (OVCAR-8)	pIC50 (LNCaP)
Cn1ncc(Cl)c1-c1cc(C(=O)N[C@@H]2CNCC[C@H]2c2ccc(Cl)cc2)oc1Cl	7.76	5.73	5.88	–
Cn1ncc(Cl)c1-c1cc(C(=O)NC2CNCCC2c2ccc(F)c(F)c2)oc1Cl (racemic)	8.19	–	–	–
Cn1ncc(Cl)c1-c1ccc(C(=O)N[C@@H]2CNCC[C@H]2c2cccc(F)c2)nc1	6.98	5.33	5.46	–
Cn1ncc(Cl)c1-c1ccc(C(=O)N[C@@H]2CNCC[C@H]2c2ccc(F)c(F)c2)cc1	7.56	5.01	5.66	–
Cn1ncc(Cl)c1-c1cc(C(=O)N[C@@H]2CN[C@H](CC(=O)NC3CCC3)C[C@H]2c2ccc(Cl)c(Cl)c2)oc1Cl	8.10	6.37	6.21	7.10
CNc1cc(-c2ccc(C(=O)N[C@@H]3CNCC[C@H]3c3ccc(Cl)cc3)o2)ncn1	6.28	4.43	4.91	–
Cn1ncc(Br)c1-c1coc(C(=O)NC2CNCC2c2ccc(F)c(F)c2)c1 (racemic)	5.44	–	–	–
Cn1ncc(Cl)c1-c1coc(C(=O)N[C@@H]2CNCC[C@H]2c2ccc(F)c(F)c2)c1	8.29	6.00	5.85	–
Cn1ncc(Br)c1-c1ccc(C(=O)N[C@@H]2CNCC[C@H]2c2ccc(F)c(F)c2)cn1	6.57	4.57	5.21	–
Cn1cc(-c2coc(C(=O)N[C@@H]3CNCC[C@H]3c3ccc(Cl)cc3)c2)cn1	< 6.00	4.63	5.00	–
Cn1ncc(Cl)c1-c1ccc(C(=O)N[C@@H]2CNCC[C@H]2c2ccc(Cl)cc2)o1	7.86	5.59	5.37	–
Cn1ncc(Br)c1-c1ccc(C(=O)N[C@@H]2CNCC[C@H]2c2cccc(F)c2)nc1	6.74	5.20	5.72	–
Cn1ncc(Br)c1-c1oc(C(=O)N[C@@H]2CNCC[C@H]2c2ccc(Cl)cc2)cc1Br	7.53	4.97	5.34	–
Cn1nccc1-c1oc(C(=O)N[C@@H]2CNCC[C@H]2c2ccc(Cl)cc2)cc1Br	6.79	4.86	4.82	–
Cn1ncc(Cl)c1-c1cc(C(=O)N[C@H]2CNCC[C@@H]2c2ccc(F)c(F)c2)oc1Cl	7.29	5.96	6.31	–
C=CC[C@@H]1C[C@@H](c2ccc(Cl)c(Cl)c2)[C@H](NC(=O)c2cc(-c3c(Cl)cnn3C)c(Cl)o2)CN1	7.91	6.11	6.00	6.80
Cn1ncc(Br)c1-c1ccc(C(=O)N[C@@H]2CNCC[C@H]2c2ccc(F)c(F)c2)cc1	7.13	4.65	5.54	–
Cn1ncc(Cl)c1-c1cc(C(=O)N[C@H]2CNCC[C@@H]2c2ccc(C(F)(F)F)cc2)oc1Cl	6.89	5.98	6.05	–
Cn1nccc1-c1ccc(C(=O)N[C@@H]2CNCC[C@H]2c2ccc(Cl)cc2)o1	6.64	5.02	5.22	–
Cn1ncc(Cl)c1-c1cc(C(=O)NC2CNCCC2c2ccccc2)oc1Cl (stereo not given)	7.75	–	–	–
Cn1ncc(Cl)c1-c1cc(C(=O)N[C@@H]2CNCC[C@@H]2c2ccc(F)c(F)c2)oc1Cl	8.60	–	–	–
Cn1ncc(Cl)c1-c1cc(C(=O)NC2CNCCC2c2ccc(Cl)cc2)oc1Cl (stereo not given)	7.76	–	–	–
Cn1cc(-c2ccc(C(=O)N[C@@H]3CNCC[C@H]3c3ccc(Cl)cc3)o2)cn1	< 6.00	4.82	5.36	–
CC(=O)OCC[C@@H]1C[C@@H](c2ccc(F)c(F)c2)[C@H](NC(=O)c2cc(-c3c(Cl)cnn3C)c(Cl)o2)CN1	8.47	6.16	5.30	–
COCC[C@@H]1C[C@@H](c2ccc(Cl)c(Cl)c2)[C@H](NC(=O)c2cc(-c3c(Cl)cnn3C)c(Cl)o2)CN1	8.15	6.33	5.97	6.60
Cn1ncc(Cl)c1-c1cc(C(=O)N[C@@H]2CNCC[C@H]2c2ccc(F)c(F)c2)sc1Cl	6.65	5.55	5.45	–

SMILES	pIC50 [1]	pIC50 (HCT-116)	pIC50 (OVCAR-8)	pIC50 (LNCaP)
Cn1ncc(Cl)c1-c1oc(C(=O)N[C@@H]2CNCC[C@H]2c2ccc(Cl)cc2)cc1Br	7.40	4.93	5.22	–
Cn1nccc1-c1coc(C(=O)NC2CNCCC2c2ccccc2)c1 (stereo not given)	6.15	–	–	–
Cn1ncc(Br)c1-c1coc(C(=O)N[C@@H]2CNCC[C@H]2c2ccc(Cl)cc2)c1	7.45	5.64	5.05	–
Cn1nccc1-c1csc(C(=O)N[C@@H]2CNCC[C@H]2c2ccc(Cl)cc2)c1	6.73	5.07	4.90	–
Cn1ncc(Br)c1-c1cc(C(=O)N[C@@H]2CNCC[C@H]2c2ccc(Cl)cc2)n(C)c1Br	6.70	5.13	5.31	–
Cn1ncc(Cl)c1-c1cc(C(=O)N[C@@H]2CNCC[C@H]2c2cccc(F)c2)sc1Cl	6.99	5.03	5.05	–
Cn1ncc(Cl)c1-c1cc(C(=O)N[C@@H]2CNCC[C@H]2c2cccc(C(F)(F)F)c2)oc1Cl	8.10	6.41	6.92	–
Cn1ncc(Cl)c1-c1cc(C(=O)N[C@@H]2CNCC[C@H]2c2ccc(Cl)cc2)sc1Cl	6.35	5.61	5.60	–
Cn1nccc1-c1coc(C(=O)N[C@@H]2CNCC[C@H]2c2ccc(Cl)cc2)c1	7.53	5.81	5.46	–
O=C(N[C@@H]1CNCC[C@H]1c1ccc(Cl)cc1)c1ccc(-c2cn[nH]c2)o1	7.30	4.66	5.30	–
Cn1ncc(Br)c1-c1ccc(C(=O)N[C@@H]2CNCC[C@H]2c2ccc(Cl)cc2)o1	7.51	5.42	5.43	–
O=C(N[C@@H]1CNCC[C@H]1c1ccc(Cl)cc1)c1ccc(-c2ncnc3c2CCC3O)s1 (stereo not given in full)	< 6.00	4.64	4.62	–
NC1(C(=O)N[C@@H](CCO)c2ccc(Cl)cc2)CCN(c2nc[nH]c3nccc2-3)CC1 [CAPIVASERTIB]	–	5.28	–	6.75
Cn1ncc(Cl)c1-c1cc(C(=O)N[C@@H]2CN[C@H](CCN3CCCC3)C[C@H]2c2ccc(Cl)c(Cl)c2)oc1Cl	8.19	5.71	5.74	5.72
Cn1nccc1-c1coc(C(=O)NC2CNCCC2c2ccc(F)c(F)c2)c1 (racemic)	6.72	–	–	–
Cn1ncc(Cl)c1-c1cc(C(=O)NC2CNCC2c2ccc(C(F)(F)F)cc2)oc1Cl (stereo not given)	6.27	–	–	–
Cn1nccc1-c1ccc(C(=O)N[C@@H]2CNCC[C@H]2c2cccc(F)c2)nc1	7.12	5.25	5.13	–
Cn1ncc(Cl)c1-c1cc(C(=O)N[C@@H]2CNCC[C@H]2c2ccc(Cl)c(C(F)(F)F)c2)sc1Cl	6.49	5.76	5.94	–
Cn1cc(-c2c(Cl)cnn2C)cc1C(=O)N[C@@H]1CNCC[C@H]1c1ccc(Cl)cc1	6.67	5.52	5.21	–
Cn1nccc1-c1ccc(C(=O)N[C@@H]2CNCC[C@H]2c2ccc(F)c(F)c2)cn1	7.24	4.62	5.68	–
Cn1ncc(Cl)c1-c1cc(C(=O)N[C@@H]2CN[C@H](CC(=O)NCC(O)CO)C[C@H]2c2ccc(Cl)c(Cl)c2)oc1Cl (stereo not given in full)	8.50	5.15	5.23	6.18
Cn1ncc(Cl)c1-c1cc(C(=O)N[C@@H]2CNCC[C@H]2c2ccc(C(F)(F)F)cc2)oc1Cl	8.03	6.55	6.92	–
Cn1ncc(Cl)c1-c1ccc(C(=O)N[C@@H]2CNCC[C@H]2c2ccc(F)c(F)c2)cn1	6.67	4.46	5.21	–
Cn1ncc(Cl)c1-c1cc(C(=O)NC2CNCCC2c2ccc(C(F)(F)F)cc2)oc1Cl (stereo not given)	8.14	–	–	–
Cn1ncc(Cl)c1-c1cc(C(=O)N[C@@H]2CNCC[C@H]2c2ccc(Cl)cc2)n(C)c1Cl	6.83	5.13	4.91	–
Cn1ncc(Cl)c1-c1coc(C(=O)NC2CNCC2c2ccc(F)c(F)c2)c1 (racemic)	5.81	–	–	–
